Measured values reported in article PMC11547375, “Peptide Dimerization as a Strategy for the Development of Antileishmanial Compounds” (Molecules, 2024).
Like-named read-outs stand apart in the source and are kept apart here. Positions of bridges follow the written chain, without caps; N, C: chain ends. Residues, ends and D or L forms follow the SMILES beside them. Chains are numbered I, II in the order given. No end group written: not given here.

Legend:
[1] = target: cathepsin B; conditions: cited from earlier work
From the text: (§1) In addition to the membrane, peptides may have other therapeutic targets in Leishmania. Enzymes are essential for functional integrity and virulence, highlighting the fundamental role of cysteine proteases in the infectious process, so their inhibition can have high therapeutic potential, enabling the design of new drugs. In L. mexicana, three cysteine protease genes were identified as virulence factors: lmcpa, lmcpb, and lmcpc. Of these, lmcpb encodes a protein product like cathepsin L and is the most abundant in the amastigote form of the parasite, so this enzyme is an i ...

[2] = tested on: L. amazonensis promastigotes; test: microbe, parasite or virus in culture; type: cell-based, Leishmania amazonensis; conditions: Leishmania amazonensis, read-out: IC50 Promastigote
Procedure: (§2) The L. amazonensis promastigotes (MPRO/BR/1972/M1841-LV-79) were grown in LIT culture medium, while the L. mexicana promastigotes (MNYC/BZ/62/M379) were cultivated in Schneider’s medium (Sigma-Aldrich, St. Louis, MO, USA), supplemented with 10% heat-inactivated fetal bovine serum (FBS; Gibco/Invitrogen, Waltham, MA, USA) at 28 °C until reaching the mid-log phase of growth. Macrophages were sourced from the peritoneal cavity of Swiss mice using the methodology outlined by de Almeida et al.. Anti-promastigote and anti-amastigote assays of L. mexicana and L. amazonensis and their cytotoxic activity were conducted as previously described. IC50 is the concentration capable of killing 50% of the parasites. The drug concentration that inhibited 50% of cell growth was denoted as the 50% cytotoxic concentration (CC50). Cytotoxicity for the host cells and the protozoan species was compared and expressed as the selectivity index (SI), calculated as the ratio of the CC50 for macrophages to the IC50 for the protozoan species.

[3] = tested on: L. mexicana amastigotes; test: microbe, parasite or virus in culture; type: cell-based, Leishmania mexicana; conditions: Leishmania mexicana, ± standard deviation, SD
Procedure: (§3) Macrophages were sourced from the peritoneal cavity of Swiss mice using the methodology outlined by de Almeida et al.. Anti-promastigote and anti-amastigote assays of L. mexicana and L. amazonensis and their cytotoxic activity were conducted as previously described. […] Cytotoxicity for the host cells and the protozoan species was compared and expressed as the selectivity index (SI), calculated as the ratio of the CC50 for macrophages to the IC50 for the protozoan species.

[4] = tested on: L. amazonensis amastigotes; test: microbe, parasite or virus in culture; type: cell-based, Leishmania amazonensis; conditions: Leishmania amazonensis, read-out: IC50 Amastigote
Procedure: as §3

[5] = tested on: L. mexicana promastigotes; test: Membrane damage by fluorescence microscopy (PI/Hoechst); type: cell-based, Leishmania mexicana; conditions: 1.25 and 2.5 µmol L^−1, 24 h; ratio PI-labeled / Hoechst-labeled parasites
Procedure: Fluorescence microscopy assays were also employed to investigate the mechanism of action of the peptides. […] In addition, the ratio of PI-labeled cells to Hoechst-labeled cells was used to determine the percentage of cells that had suffered some type of membrane damage. Images were also obtained after the treatments of the promastigote form with the TSHa peptide, the dimeric (TSHa)2K peptide, and the Amp B control drug at concentrations of 2.5 and 1.25 µmol L^−1 after 2 and 24 h to evaluate the mechanism of action of these molecules and whether the time of exposure to the compounds might affect their activity. […] The results for the other treatments are provided in the Supplementary Materials (Figures S1–S10).
For fluorescence microscopy, assays were carried out with promastigotes of L. mexicana in the exponential phase of growth in passage P3 at a concentration of 1 × 10^7 cells mL^−1. Treatments were performed with Amp B and the peptides at concentrations of 1.25 or 2.5 μmol L^−1 for 2 or 24 h, respectively. The parasites were labeled with 5 μg mL^−1 of Hoechst solution (stock: 1 mg mL^−1) for 5 min, followed by the addition of PI (1 mg mL^−1) to a final concentration of 40 μg mL^−1 and incubation for 20 min at room temperature. […] Images were acquired with a fluorescence microscope (Nikon DS-R11,10 Nikon Instruments Inc., Melville, NY, USA) at 40× magnification. […]

[6] = tested on: L. mexicana promastigotes; test: Membrane damage by flow cytometry with propidium iodide; type: cell-based, Leishmania mexicana; conditions: 1 × IC50; promastigotes 5 × 10^6 cells mL^−1, PI 80 µg mL^−1 20 min; given in Figure 11
Procedure: The mechanism of action of the peptides on the membrane was also evaluated by flow cytometry using propidium iodide. Flow cytometry has been considered more reliable for studies of cell susceptibility because it provides intrinsic information about cells, such as size and complexity. The use of fluorochromes allows for the evaluation of a wide range of physiological or morphological parameters, such as membrane integrity, pH, membrane potential, and viability. The results presented here (Figure 11) are expressed as the fluorescence intensity of the PI-labeled L. mexicana cells, considering that the damage caused to the parasite membrane facilitated the entry of PI into the cell nucleus.
For flow cytometry assays, the promastigotes of L. mexicana were grown in Schneider medium (Sigma) supplemented with inactivated fetal bovine serum. […] After incubation, the promastigotes were washed twice with PBS and labeled with propidium iodide (PI) (80 μg mL^−1) for 20 min, followed by centrifugation at 2000× g for 10 min and resuspension in 500 μL of PBS. The samples were analyzed using an Accuri C6 flow cytometer (BD Biosciences, Franklin Lakes, NJ, USA) and proprietary software, with at least 50,000 events effectively included in each analysis. All the experiments were performed using biological duplicates in triplicate at each experimental point.

[7] = tested on: L. mexicana promastigotes; test: microbe, parasite or virus in culture; type: cell-based, Leishmania mexicana; conditions: Leishmania mexicana, ± standard deviation, SD, read-out: IC50 Promastigote
Procedure: as §2

[8] = tested on: peritoneal macrophages; test: Cytotoxicity in peritoneal macrophages; type: cell-based; conditions: peritoneal macrophages of Swiss mice
Procedure: as §2

[9] = target: LmCPB2.8ΔCTE (CPB) (Leishmania mexicana, UniProt P36400); conditions: cited from earlier work
From the text: as §1

[10] = POPC–POPS–Erg (16:3:1) LUVs
Procedure: To evaluate the effect of monomeric and dimeric peptides on the lipid membrane and relate it to the mechanism of action, vesicle permeabilization studies were carried out for evaluating the possible mechanisms on membrane. The leakage assays were carried out with carboxyfluorescein (CF) internalized in the mimetic membranes. The vesicles of POPC–Chol (4:1) and POPC–POPS (phosphatidylserine)–ergosterol (16:3:1) were employed. These mimetic membranes were designed considering the compositions of phospholipids and steroids in the host membrane and in the Leishmania membrane, respectively. The constitution of the cell membrane of Leishmania varies according to the morphology of the parasite and its stage of development, but is more negative than the cell membranes of mammals, which allow for cationic AMPs to bind more easily. Our studies were based on the membrane of the promastigote form, which is characterized by the presence of mainly phosphatidylcholine, phosphatidylethanolamine, phosphatidylinositol, phosphatidylserine, and ergosterol, in addition to diglycerides and glycolipids containing mannose and galactose. In the amastigote form of Leishmania, there is a higher concentration of fatty acids and cholesterol, while triglycerides and ergosterol decrease during the transition from promastigotes to amastigotes. In addition, the main phospholipids found are sphingomyelin and phosphatidylserine, with lower proportions of phosphatidylinositol and lysophosphatidylethanolamine.
Large unilamellar vesicles (LUVs) composed of POPC (1-palmitoyl-2-oleoyl-sn-glycero-3-phosphatidylcholine) and cholesterol (Chol) (4:1), or POPC, POPS (1-palmitoyl-2-oleoyl-sn-glycero-3-serine), and ergosterol (Erg) (16:3:1) were prepared according to the methods described by Lorenzón et al.. […] We employed a Hitachi U-2000 spectrophotometer (TSHa) (Hitachi, Tokyo, Japan) or a Fluorolog-3 FL3-122 spectrofluorometer (Horiba Jobin Yvon, Glasgow, UK) ((TSHa)2K) for analyses.

[11] = Carboxyfluorescein leakage from POPC-Chol (4:1) vesicles mimicking host membrane; conditions: POPC–Chol (4:1) LUVs, peptide tested at 1 and 5 µmol L^−1
Procedure: Large unilamellar vesicles (LUVs) composed of POPC (1-palmitoyl-2-oleoyl-sn-glycero-3-phosphatidylcholine) and cholesterol (Chol) (4:1), or POPC, POPS (1-palmitoyl-2-oleoyl-sn-glycero-3-serine), and ergosterol (Erg) (16:3:1) were prepared according to the methods described by Lorenzón et al. [34]. […] We employed a Hitachi U-2000 spectrophotometer (TSHa) (Hitachi, Tokyo, Japan) or a Fluorolog-3 FL3-122 spectrofluorometer (Horiba Jobin Yvon, Glasgow, UK) ((TSHa)2K) for analyses.

[12] = tested on: L. amazonensis intracellular amastigotes; test: Infection index, L. amazonensis intracellular amastigotes in macrophages; type: cell-based, Leishmania amazonensis; conditions: 24 h of treatment
[13] = tested on: L. mexicana intracellular amastigotes; test: Infection index, L. mexicana intracellular amastigotes in macrophages; type: cell-based, Leishmania mexicana; conditions: 24 h of treatment
Procedure: During the infection process, the amastigotes replicated in macrophages are transmitted to healthy cells, leading to the amplification of infection; the greater the parasitic load is, the worse the infection is. The infection index (percentage of infected cells x number of parasites per infected cell) was used to evaluate this transmission. In this work, the infection index was determined using L. mexicana for 24 h (Figure 6) and 48 h of treatment (Figure 7).
as §2, with “The drug concentration that inhibited 50% of cell growth was denoted as the 50% cytotoxic concentration (CC50).” left out

[14] = target: LmCPB2.8ΔCTE (CPB), cysteine protease of Leishmania mexicana (L. mexicana) (UniProt P36400)

For Z-Arg-Leu-Val-Gly-Ile-Val-O-methyl, the Ki [1] is given as 0.088 nM.

Work on C[C@@H]1[C@H](O)[C@@H](C)/C=C/C=C/C=C/C=C/C=C/C=C/C=C/[C@H](O[C@@H]2O[C@H](C)[C@@H](O)[C@H](N)[C@@H]2O)C[C@@H]2O[C@](O)(C[C@@H](O)C[C@@H](O)[C@H](O)CC[C@@H](O)C[C@@H](O)CC(=O)O[C@H]1C)C[C@H](O)[C@H]2C(=O)O [Amp B, Amphotericin B] yielded an IC50 [2] of 700 ± 200 nM, an IC50 ([3]; 24 h of treatment, read-out: IC50 Amastigote 24 h of Treatment) of 630 ± 1200 nM and an IC50 ([3]; 48 h of treatment, read-out: IC50 Amastigote 48 h of Treatment) of 630 ± 1200 nM. For the same molecule, the IC50 [4] was 630 ± 20 nM, the “membrane damage, in words” value [5] was “caused damage to the membrane” and the “V1-L gate (cells not labeled with PI)” value [6] was 55.2%. The “V1-R gate (PI-labeled cells)” value [6] was 44.8%, the IC50 [7] was 500 ± 200 nM and the “CC50 Peritoneal Macrophages” value ([8]; Table 1, ± standard deviation, SD) was 24000 ± 20 nM. For the same molecule, the “CC50 Peritoneal Macrophage” value ([8]; Table 2) was 24000 ± 400 nM.

In the case of CC(C)C[C@H](NC(=O)[C@H]1O[C@@H]1C(=O)O)C(=O)NCCCCN=C(N)N (relative stereo) [Peptide E64, L-trans-epoxysuccinyl-leucylamido-(4-guanidino)butane], the “inhibition of Leishmania CPB, in words” value [9] is listed as “in the nanomolar range is a potent irreversible inhibitor”.

In the case of Cc1ccc(C(=O)[C@@]23C(=O)OC(=O)C2N(C)[C@]2(c4ccccc4)Sc4ccccc4[C@H]32)cc1 (stereo partly drawn) [derivative of benzo[b]thiophene, (4aS,9bS,9cS)-4-methyl-9c-(4-methylbenzoyl)-4a-phenyl-4,4a,9b,9c-tetrahydro-1H-benzo[4,5]thieno[2,3-b]furo[3,4-d]pyrrole-1,3(3aH)-dione], the IC50 ([9]; read-out: IC50-CEC, LmCPB2.8△CTE (CEC)) is listed as 3700 nM.

For CC[C@H](C)[C@H](NC(=O)CNC(=O)[C@H](CO)NC(=O)[C@H](CC(C)C)NC(=O)[C@@H](N)Cc1ccccc1)C(=O)N[C@H](C(=O)NCC(=O)N[C@@H](CCSC)C(=O)N[C@@H](CC(C)C)C(=O)NCC(=O)N[C@@H](CCCCN)C(=O)N[C@@H](CC(C)C)C(=O)N[C@@H](Cc1ccccc1)C(=O)NCCCC[C@H](NC(=O)[C@H](Cc1ccccc1)NC(=O)[C@H](CC(C)C)NC(=O)[C@H](CCCCN)NC(=O)CNC(=O)[C@H](CC(C)C)NC(=O)[C@H](CCSC)NC(=O)CNC(=O)[C@@H](NC(=O)[C@@H](NC(=O)CNC(=O)[C@H](CO)NC(=O)[C@H](CC(C)C)NC(=O)[C@@H](N)Cc1ccccc1)[C@@H](C)CC)C(C)C)C(N)=O)C(C)C [(TSHa)2K] (I: H-FLSGIVGMLGKLFK-NH2 / II: H-FLSGIVGMLGKLF; amide I:14-II:C; N-terminus assumed), the CF release ([10]; peptide 1 µmol L^−1, fluorescence) was 20%, the CF release ([10]; peptide 5 µmol L^−1, fluorescence) was 45% and the “permeabilization of POPC–Chol vesicles, in words” value [11] was “No permeabilization”. The “membrane damage, in words” value [5] was “caused damage to the membrane”, the “V1-L gate (cells not labeled with PI)” value [6] was 52.8% and the “V1-R gate (PI-labeled cells)” value [6] was 47.2%. For the same molecule, the “decrease of infection rate (infection index) vs untreated infected cells” value [12] was 3.8 fold and the “decrease of infection rate (infection index) vs untreated infected cells” value [13] was 5.5 fold.

Molecule dimeric peptide (TSHa)2K has an IC50 of inhibition of the enzyme activity of CPB (LmCPB2.8ΔCTE) [14] of 3600 nM and an Inhibitory Activity at 20 μmol L^−1 (%): inhibition of the enzyme activity of CPB (LmCPB2.8ΔCTE) by the peptide [14] of 98%.

In the case of FLSGIVGMLGKLF-NH2 [temporin peptide TSHa], the IC50 of inhibition of the enzyme activity of CPB (LmCPB2.8ΔCTE) [14] is reported as 9200 nM and the Inhibitory Activity at 20 μmol L^−1 (%): inhibition of the enzyme activity of CPB (LmCPB2.8ΔCTE) by the peptide [14] is reported as 94.2%.
